Data: patent publication US6743795B1, “3-nitropyridine derivaives and the pharmaceutical compositions containing said derivatives” (Dong Wha Pharm. Ind. Co. Ltd., priority 1999, dated 2004)

Columns and labels:
[1] = target: T1, HBV polymerase (Hepatitis B virus genotype A2 subtype adw2, UniProt P03159); experiment: In vitro reverse transcription activity of HBV polymerase (ELISA-type, DIG/biotin nucleotides); format: biochemical; conditions: for inhibition at 0.01 µg/mL / inhibition at 0.1 µg/mL / inhibition at 1 µg/mL: read-out: Inhibition activity on HBV-RT (%)
T1 construct: made in house; host or cells: E. coli
Method: <Experiment 1> Inhibitory Effect on the In Vitro Activities of HBV Polymerase in Reverse Transcription
The following in vitro experiment was performed to determine the effect of the compounds of formula 1 on the activity of HBV polymerase during reverse transcription.
The present inventors submitted application for a patent concerning HBV polymerase genetically expressed in and separated from E.coli, the process of its preparation, and the method to measure the enzyme activities (KR 94-3918, KR 96-33998). In the present experiments HBV polymerase was used which had been expressed in E. coli as stated above.
The method used in the present invention to measure in vitro reverse transcribing activities of HBV polymerase is as follows. Basic principles are the same as for ELISA. Nucleotides with biotin or digoxigenin group attached are included as substrates and anti-DIG antibodies attached to peroxidase enzyme recognize the polymerized substrates.
To the wells coated with streptavidin, 20 μl of HBV polymerase, 20 μl of reaction mixture (10 μM each of DIG-UTP and Biotin-UTP, 46 mM Tris-HCl, 266 mM KCl, 27.5 mM MgCl2, 9.2 mM DTT substrate/primer nybrid), and 20 μl of test compound (added to 1, 0.1, and 0.01 μg/ml) were added and allowed to react at 22° C. for 15 hrs. During this reaction, HBV polymerase catalyzes DNA synthesis and digoxigenin and biotin attached to nucleotides form bonds with streptavidin coated on the bottom of wells. When the reaction was done, each well was washed with 250 μl of cleaning buffer (pH 7.0) for 30 seconds, which was repeated five times to remove remaining impurities. 200 μl of anti-DIG-POD antibody was added to each well and allowed to react for 1 hr at 37° C., and the wells were washed with cleaning buffer to remove impurities. 200 μl each of ABTS™, a substrate of peroxidase, was then added and allowed to react at room temperature for 30 min. Absorbance was measured at 405 nm using ELISA reader.
The percentage of reduction in HBV polymerase activities for reverse transcription was calculated using the group without test compound as a control and the results are shown in Table 3.

[2] = system: HBV; experiment: Proliferation of HBV in HBV producing cell line HepG 2.2.15 (competitive PCR of culture supernatant); format: cell-based, Hepatitis B virus; conditions: HepG 2.2.15, one week; for inhibition at 0.01 µg/mL / inhibition at 0.1 µg/mL / inhibition at 1 µg/mL: Hepatitis B virus, HepG2.2.15, 168 h, read-out: Inhibitory effect on the HBV proliferation: Inhibition activity on HBV-RT (%)
Method: <Experiment 2> Inhibitory Effect on the Proliferation of HBV in HBV Producing Cell Line
The following experiment was performed to determine inhibitory effects of compounds of formula 1 on the proliferation of HBV producing cell line.
To test for antiviral effect, replication and proliferation of HBV were measured in HepG 2.2.15, a human liver cancer cell line.
The cell concentration was adjusted to 1×10^5 cells/ml and 1 ml was added to each well of a 24-well cell culture plate, which was then kept in a culture box for 3-4 days at 37° C. under 5% CO2 until cells grew sufficiently, changing culture medium everyday. When the cells matured sufficiently, the test compounds were added to the final concentrations of 0.01, 0.1, and 1 μg/ml. One week after the addition of test compounds, the culture solution was centrifuged at 5,000 rpm for 10 min. 25 μl of supernatant was transferred to a new tube and 5 μl of lysis solution [0.54N NaOH, 0.06% NP40] was added to each tube. After keeping the tube at 37° C. for 1 hr, 30 μl of neutralizing solution [0.09N HCl 0.1MTris-HCl, pH7.4] was added as a reaction solution for competitive polymerase chain reaction (PCR).
PCR was performed using genetic sequence of HBV core protein as a matrix. PCR reaction was carried out by adding 1 unit of Taq polymerase enzyme to 25 pmol of each primer, 250 μM dNTP, 5 μl of PCR reaction solution [0.54N NaOH, 0. 06% NP40, 0.09N HCl, 0.1M Tris-HCl, pH 7.4].
DNA polymerized by PCR was electrophoresed on Agarose gel and quantitatively analyzed using an image analyzer (Gel Doc 1000, Bio-Rad) in order to evaluate the effect of compounds of the present invention on the reduction of HBV proliferation.
3TC (lamivudine) was used as a positive control at the same concentrations as those of the test compounds. The percentage of reduction in HBV proliferation was calculated using the group without test compound as a control and the results are represented in Table 4.

[3] = target: T2, HIV reverse transcriptase (Human immunodeficiency virus type 1 group M subtype B, UniProt P03366); experiment: In vitro HIV reverse transcriptase activity (non-radioactive RT assay kit); format: biochemical
T2 construct: purchased Boehringer Mannheim
Method: <Experiment 3> Inhibitory Effect on the In Vitro HIV Enzyme Activities in Reverse Transcription
The following in vitro experiments were done to determine the effect of compounds of formula 1 on the reduction of HIV enzyme activities in reverse transcription.
Non-radioactive reverse transcriptase assay kit (Boehringer Mannheim) was used in the measurement of in vitro transcriptase activities. 20 μl (40 ng) of HIV transcriptase and 20 μl of reaction mixture containing matrix-primer hybrid poly(A)oligo(dT)15, DIG(digoxigenin)-dUTP, biotin-dUTP, and TTP were added to wells coated with streptavidin. Test compounds were also added at the final concentrations of 0.1 and 1 μg/ml and allowed to react at 37° C. for 1 hr. At this time, DNA is formed from RNA by the action of HIV reverse transcriptase, forming bonds with streptavidin coated on the bottom of wells because of digoxigenin and biotin moieties attached to nucleotides.
When the reaction was completed, each well was washed with 250 μl of cleaning buffer (pH7.0) for 30sec. five times to remove remaining impurities. 200 μl of anti-DIG-POD […] was added to each well, allowed to react at 37° C. for 1 hr and washed as above to remove impurities. 200 μl of ABTS™, a substrate for peroxidase, was added to each well and allowed to react at room temperature for 30 min. Absorbance at 405 nm was then read for each solution using ELISA reader and used for quantitative determination of inhibitory effect on the HIV transcriptase activities. The percentage of reduction in the activities of HIV reverse transcriptase was calculated using the group without test compound as control and the results are represented in Table 5.

T1 sequence (P03159 whole entry): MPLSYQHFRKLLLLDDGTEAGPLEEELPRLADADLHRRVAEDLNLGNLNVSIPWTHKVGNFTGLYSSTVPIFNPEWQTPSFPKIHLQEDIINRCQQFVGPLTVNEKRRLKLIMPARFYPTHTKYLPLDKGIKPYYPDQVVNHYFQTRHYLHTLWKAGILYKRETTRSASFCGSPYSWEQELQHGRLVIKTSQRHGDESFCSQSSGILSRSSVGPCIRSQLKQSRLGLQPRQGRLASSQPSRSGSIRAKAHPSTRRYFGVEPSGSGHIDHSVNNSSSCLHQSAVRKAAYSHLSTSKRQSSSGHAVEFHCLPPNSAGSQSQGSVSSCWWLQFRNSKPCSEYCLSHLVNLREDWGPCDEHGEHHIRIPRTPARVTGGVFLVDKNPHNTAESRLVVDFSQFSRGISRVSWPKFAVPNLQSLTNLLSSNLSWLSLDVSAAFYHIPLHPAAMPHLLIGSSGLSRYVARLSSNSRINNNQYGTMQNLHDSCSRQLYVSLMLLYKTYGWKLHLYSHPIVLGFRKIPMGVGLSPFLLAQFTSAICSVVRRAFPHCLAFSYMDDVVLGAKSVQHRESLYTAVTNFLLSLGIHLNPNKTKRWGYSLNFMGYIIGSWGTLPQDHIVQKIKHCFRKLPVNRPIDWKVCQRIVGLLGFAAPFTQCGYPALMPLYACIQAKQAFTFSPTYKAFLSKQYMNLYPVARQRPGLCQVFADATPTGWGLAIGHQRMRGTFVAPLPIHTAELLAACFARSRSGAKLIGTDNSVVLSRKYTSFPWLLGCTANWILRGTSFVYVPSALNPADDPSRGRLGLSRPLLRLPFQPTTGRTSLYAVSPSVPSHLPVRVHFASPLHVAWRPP

| Compound | inhibition at 0.01 µg/mL ([1]; 0.01 μg/ml test compound) [%] | inhibition at 0.1 µg/mL ([1]; 0.1 μg/ml test compound) [%] | inhibition at 1 µg/mL ([1]; 1 μg/ml test compound) [%] | also measured |
| --- | --- | --- | --- | --- |
| O=[N+]([O-])c1ccc(N2CCC(O)CC2)nc1Nc1ccc2cn[nH]c2c1 [Example 29, 6-(4-hydroxy-1-piperidinyl)-2-(1H-6-indazolylamino)-3-nitropyridine] | 10 | 35 | 52 |  |
| O=[N+]([O-])c1ccc(NC2CC2)nc1Nc1ccc2[nH]ncc2c1 [Example 8, 6-cyclopropylamino-2-(1H-5-indazolylamino)-3-nitropyridine] | 38 | 52 | 72 | inhibition at 0.01 µg/mL ([2]; 0.01 μg/ml): 25%; inhibition at 0.1 µg/mL ([2]; 0.1 μg/ml): 46%; inhibition at 1 µg/mL ([2]; 1 μg/ml): 65% |
| O=[N+]([O-])c1ccc(N2CCN(CCO)CC2)nc1Nc1ccc2cn[nH]c2c1 [Example 27, 6-[4-(2-hydroxyethyl)-1-piperazinyl]-2-(1H-6-indazolylamino)-3-nitropyridine] | 15 | 38 | 60 | Inhibitory effect on the activities of HIV reverse transcriptase: Inhibition activity on HIV-RT (%) ([3]; 0.1 μg/ml test compound): 45%; Inhibitory effect on the activities of HIV reverse transcriptase: Inhibition activity on HIV-RT (%) ([3]; 1 μg/ml test compound): 81% |
| CN1CCN(c2ccc([N+](=O)[O-])c(Nc3ccc4[nH]ncc4c3)n2)CC1 [Example 25, 2-(1H-5-indazolylamino)-6-(4-methyl-1-piperazinyl)-3-nitropyridine] | 35 | 54 | 88 | inhibition at 0.01 µg/mL ([2]; 0.01 μg/ml): 25%; inhibition at 0.1 µg/mL ([2]; 0.1 μg/ml): 46%; inhibition at 1 µg/mL ([2]; 1 μg/ml): 83% |
| CN1CCN(c2ccc([N+](=O)[O-])c(Nc3ccc4cn[nH]c4c3)n2)CC1 [Example 26, 2-(1H-6-indazolylamino)-6-(4-methyl-1-piperazinyl)-3-nitropyridine] | 18 | 40 | 63 |  |
| Nc1ccc([N+](=O)[O-])c(Nc2ccc3[nH]ncc3c2)n1 [Example 9, 6-amino-2-(1H-5-indazolylamino)-3-nitropyridine] | 40 | 59 | 80 |  |
| COCC(C)Nc1ccc([N+](=O)[O-])c(Nc2ccc3[nH]ncc3c2)n1 (stereo not drawn) [Example 15, 2-(1H-5-indazolylamino)-6-(2-methoxy-1-methyl)ethylamino-3-nitropyridine] |  |  |  | Inhibition activity on HBV-RT (%) ([1]; 0.01 μg/ml test compound): 47%; Inhibition activity on HBV-RT (%) ([1]; 0.1 μg/ml test compound): 68%; Inhibition activity on HBV-RT (%) ([1]; 1 μg/ml test compound): 97%; Inhibitory effect on the HBV proliferation: Inhibition activity on HBV-RT (%) ([2]; 0.01 μg/ml): 36%; Inhibitory effect on the HBV proliferation: Inhibition activity on HBV-RT (%) ([2]; 0.1 μg/ml): 60%; Inhibitory effect on the HBV proliferation: Inhibition activity on HBV-RT (%) ([2]; 1 μg/ml): 95% |
| 6-(2-hydroxyethyl)methylamino-2-(1H-5-indazolylamino)-3-nitropyridine [Example 10] |  |  |  | Inhibition activity on HBV-RT (%) ([1]; 0.01 μg/ml test compound): 50%; Inhibition activity on HBV-RT (%) ([1]; 0.1 μg/ml test compound): 58%; Inhibition activity on HBV-RT (%) ([1]; 1 μg/ml test compound): 78% |
| C[C@@H](CCO)Nc1ccc([N+](=O)[O-])c(Nc2ccc3cn[nH]c3c2)n1 [Example 13, 6-[(1S)-1-(hydroxyethyl)ethylamino]-2-(1H-6-indazolylamino)-3-nitropyridine] | 10 | 35 | 66 |  |
| CN(C)CCNc1ccc([N+](=O)[O-])c(Nc2ccc3cn[nH]c3c2)n1 [Example 16, 6-[2-(dimethylamino)ethylamino]-2-(1H-6-indazolylamino)-3-nitropyridine] | 38 | 55 | 80 | Inhibitory effect on the activities of HIV reverse transcriptase: Inhibition activity on HIV-RT (%) ([3]; 0.1 μg/ml test compound): 51%; Inhibitory effect on the activities of HIV reverse transcriptase: Inhibition activity on HIV-RT (%) ([3]; 1 μg/ml test compound): 75% |
| O=[N+]([O-])c1ccc(NCc2cccnc2)nc1Nc1ccc2[nH]ncc2c1 [Example 19, 2-(1H-5-indazolylamino)-3-nitro-6-(3-pyridyl)methylaminopyridine] | 42 | 58 | 91 | inhibition at 0.01 µg/mL ([2]; 0.01 μg/ml): 30%; inhibition at 0.1 µg/mL ([2]; 0.1 μg/ml): 51%; inhibition at 1 µg/mL ([2]; 1 μg/ml): 85% |
| O=[N+]([O-])c1ccc(N2CCC(O)CC2)nc1Nc1ccc2[nH]ncc2c1 [Example 28, 6-(4-hydroxy-1-piperidinyl)-2-(1H-5-indazolylamino)-3-nitropyridine] | 20 | 34 | 55 |  |
| CN1CCN(Nc2ccc([N+](=O)[O-])c(Nc3ccc4[nH]ncc4c3)n2)CC1 [Example 17, 2-(1H-5-indazolylamino)-6-(4-methyl-1-piperazinyl)amino-3-nitropyridine] | 41 | 52 | 75 |  |
| CNc1ccc([N+](=O)[O-])c(Nc2ccc3[nH]ncc3c2)n1 [Example 3, 2-(1H-5-indazolylamino)-6-methyl amino-3-nitropyridine] |  |  |  | Inhibition activity on HBV-RT (%) ([1]; 0.01 μg/ml test compound): 20%; Inhibition activity on HBV-RT (%) ([1]; 0.1 μg/ml test compound): 47%; Inhibition activity on HBV-RT (%) ([1]; 1 μg/ml test compound): 58%; Inhibitory effect on the HBV proliferation: Inhibition activity on HBV-RT (%) ([2]; 0.1 μg/ml): 35%; Inhibitory effect on the HBV proliferation: Inhibition activity on HBV-RT (%) ([2]; 1 μg/ml): 53% |
| Nc1ccn([C@@H]2CS[C@H](CO)O2)c(=O)n1 [Example 3TC, lamivudine, reference compound] |  |  |  | inhibition at 0.01 µg/mL ([2]; 0.01 μg/ml): 48%; inhibition at 0.1 µg/mL ([2]; 0.1 μg/ml): 80%; inhibition at 1 µg/mL ([2]; 1 μg/ml): 99% |
